Active and inactive are the calls of the source.
Tests used:
Caspase-3 = target: T1, Caspase-3 (Homo sapiens, UniProt P42574); type: functional;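 note: Dose-response selectivity test against caspase-3 for candidate inhibitors of sentrin-specific proteases (SENPs)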
T1 sequence (P42574 whole entry): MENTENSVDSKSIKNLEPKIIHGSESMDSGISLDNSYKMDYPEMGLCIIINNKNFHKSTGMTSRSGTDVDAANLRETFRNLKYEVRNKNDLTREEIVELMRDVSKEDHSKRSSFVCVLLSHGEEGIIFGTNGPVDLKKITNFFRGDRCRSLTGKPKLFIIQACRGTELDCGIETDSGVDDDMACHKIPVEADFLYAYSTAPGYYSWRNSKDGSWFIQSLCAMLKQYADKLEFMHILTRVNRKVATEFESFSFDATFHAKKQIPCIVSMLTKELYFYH

[1] = target: T2, Sentrin-specific protease 7 (Homo sapiens, UniProt Q9BQF6); type: functional;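 note: Luminescence-based dose-response confirmation of ultra-high-throughput screening hits, measuring inhibition of SENP7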
T2 sequence (Q9BQF6 whole entry): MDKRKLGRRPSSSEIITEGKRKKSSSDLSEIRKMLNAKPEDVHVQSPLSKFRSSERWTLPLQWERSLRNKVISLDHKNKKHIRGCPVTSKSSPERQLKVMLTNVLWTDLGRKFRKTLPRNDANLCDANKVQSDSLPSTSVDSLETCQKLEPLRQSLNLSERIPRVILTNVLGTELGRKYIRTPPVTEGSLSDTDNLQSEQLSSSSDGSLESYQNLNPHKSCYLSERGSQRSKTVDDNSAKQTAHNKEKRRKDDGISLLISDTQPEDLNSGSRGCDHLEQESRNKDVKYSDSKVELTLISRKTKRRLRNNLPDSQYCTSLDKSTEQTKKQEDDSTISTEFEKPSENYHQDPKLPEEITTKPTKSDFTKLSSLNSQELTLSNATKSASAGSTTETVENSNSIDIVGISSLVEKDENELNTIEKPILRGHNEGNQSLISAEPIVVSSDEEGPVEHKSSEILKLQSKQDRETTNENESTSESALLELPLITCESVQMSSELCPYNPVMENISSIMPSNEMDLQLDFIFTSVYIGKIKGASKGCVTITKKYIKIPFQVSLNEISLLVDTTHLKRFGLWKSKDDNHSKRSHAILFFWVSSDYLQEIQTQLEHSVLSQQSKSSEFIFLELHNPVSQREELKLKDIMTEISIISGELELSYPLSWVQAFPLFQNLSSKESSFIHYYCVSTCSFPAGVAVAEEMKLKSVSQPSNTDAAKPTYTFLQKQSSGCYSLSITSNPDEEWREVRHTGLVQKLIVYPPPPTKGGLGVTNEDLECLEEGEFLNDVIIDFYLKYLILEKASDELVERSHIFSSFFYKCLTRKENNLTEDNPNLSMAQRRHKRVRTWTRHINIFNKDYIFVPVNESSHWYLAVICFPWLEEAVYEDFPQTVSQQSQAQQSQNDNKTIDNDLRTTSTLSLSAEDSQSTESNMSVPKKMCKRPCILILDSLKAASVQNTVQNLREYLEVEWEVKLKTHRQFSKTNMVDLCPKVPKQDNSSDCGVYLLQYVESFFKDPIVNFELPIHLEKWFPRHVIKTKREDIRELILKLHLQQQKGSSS

cells [2] = type: functional, cell-based
HEK293 = experiment: HEK293T cell viability loss, resazurin readout – resazurin fluorescence, cytotoxicity control for NF-kB activator project, SAR follow-up (AID 493251); type: functional, cell-based; details: Homo sapiens
[3] = target: T3, Serine/threonine-protein phosphatase (Candida dubliniensis (strain CD36 / CBS 7987 / NCPF 3949 / NRRLY-17841) (Yeast), UniProt B9W6M3); experiment: blockers of CaCl2-induced CDRE-lacZ signaling – S. cerevisiae, luminescence, secondary, dose response (AID 2388); type: functional, cell-based;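 note: yeast reporter cells carrying a calcineurin-responsive lacZ construct stimulated with calcium chloride; luminescent beta-galactosidase reporter signal in whole cells rather than isolated phosphatase activity; potency for inhibition where a drop in reporter signal means calcineurin blockade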
T3 sequence (B9W6M3 whole entry): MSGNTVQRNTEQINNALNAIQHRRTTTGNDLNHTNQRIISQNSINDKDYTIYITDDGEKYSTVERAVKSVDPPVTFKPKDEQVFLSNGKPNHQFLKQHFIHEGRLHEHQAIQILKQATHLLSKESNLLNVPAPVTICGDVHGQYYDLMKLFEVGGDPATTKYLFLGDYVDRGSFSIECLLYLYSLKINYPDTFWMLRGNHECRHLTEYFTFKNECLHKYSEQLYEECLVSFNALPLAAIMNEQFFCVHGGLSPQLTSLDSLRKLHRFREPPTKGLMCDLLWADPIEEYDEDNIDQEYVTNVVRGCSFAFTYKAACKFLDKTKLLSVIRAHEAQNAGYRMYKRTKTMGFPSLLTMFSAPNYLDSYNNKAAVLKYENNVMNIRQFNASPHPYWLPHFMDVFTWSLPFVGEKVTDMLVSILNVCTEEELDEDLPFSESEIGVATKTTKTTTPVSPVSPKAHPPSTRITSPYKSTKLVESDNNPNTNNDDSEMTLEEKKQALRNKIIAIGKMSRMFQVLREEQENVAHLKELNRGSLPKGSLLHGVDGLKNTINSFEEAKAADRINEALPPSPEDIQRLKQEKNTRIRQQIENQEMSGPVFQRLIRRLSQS

[4] = non-specific 3'UTR reporter inhibition in Clone20-Shn3RL – cell-based, Renilla luciferase, cherry-picked, counter-screen for Shn3 inhibitor project, dose response (AID 624133); type: functional
BJ [5] = experiment: cells; type: functional, cell-based; details: Homo sapiens
Jurkat = experiment: SAR Analysis of small molecule inhibitors of T-cell specific antigen receptor-induced NF-kB activation in a Jurkat cell line using a luminescence assay - Set 2. [Related pubchem assays (depositor defined):AID435003, AID435012, AID465]; type: functional, cell-based; details: Homo sapiens
BJ [6] = experiment: growth inhibition of engineered Ras-driven BJ cells – cell-based, alamar blue fluorescence, cherrypicked samples, dose response (AID 2631); type: functional; details: Homo sapiens;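 note: confirmatory dose-response assay in RAS-dependent BJ fibroblasts engineered with TERT, LT and ST, with cytotoxicity read by fluorescence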
[7] = HEK-293T viability loss after treatment – luminescence, T-cell screen hits, cytotoxicity control for TCR NF-kB inhibitor project, dose response (AID 489026); type: functional, cell-based;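 note: cells exposed to compound about 14 hours before the viability readout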
[8] = target: ATP-dependent molecular chaperone HSP82 (Candida albicans (strain WO-1) (Yeast), UniProt C4YTQ8); experiment: steroid-induced GRE reporter decrease in yeast – S. cerevisiae, luminescence, Hsp90 inhibitor project, dose response (AID 2400); type: functional, cell-based;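 note: beta-galactosidase luminescence from glucocorticoid response element reporter as proxy for Hsp90 function; inhibitor potency where signal loss means Hsp90 inhibition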
cells [9] = type: functional, cell-based; remark: listed apart in the source

ATP-dependent molecular chaperone HSP82, sequence (C4YTQ8 whole entry): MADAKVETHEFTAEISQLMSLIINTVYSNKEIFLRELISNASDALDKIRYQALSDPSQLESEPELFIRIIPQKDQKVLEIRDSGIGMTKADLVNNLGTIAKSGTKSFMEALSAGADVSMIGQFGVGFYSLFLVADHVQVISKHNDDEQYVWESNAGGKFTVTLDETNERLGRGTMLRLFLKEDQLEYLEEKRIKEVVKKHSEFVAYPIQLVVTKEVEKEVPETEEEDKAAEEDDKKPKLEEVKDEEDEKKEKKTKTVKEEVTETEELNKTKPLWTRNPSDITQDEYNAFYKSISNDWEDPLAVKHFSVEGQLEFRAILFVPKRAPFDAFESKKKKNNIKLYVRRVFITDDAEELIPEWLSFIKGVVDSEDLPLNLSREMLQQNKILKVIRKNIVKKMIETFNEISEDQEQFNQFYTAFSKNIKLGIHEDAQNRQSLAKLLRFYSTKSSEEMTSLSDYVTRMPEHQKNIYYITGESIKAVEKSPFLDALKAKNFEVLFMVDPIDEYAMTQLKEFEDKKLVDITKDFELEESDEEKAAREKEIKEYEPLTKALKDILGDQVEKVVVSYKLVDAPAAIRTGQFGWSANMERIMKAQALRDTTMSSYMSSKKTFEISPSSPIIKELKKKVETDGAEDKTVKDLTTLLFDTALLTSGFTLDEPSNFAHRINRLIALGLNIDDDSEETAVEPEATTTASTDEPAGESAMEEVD

IC50 (Caspase-3) | IC50 [1] | Compound | EC50 (cells [2]) | IC50 (HEK293) | EC50 [3] | AC50 [4] | EC50 (BJ [5]) | IC50 (Jurkat) | EC50 (BJ [6]) | IC50 [7] | EC50 [8] | EC50 (cells [9])
6.21 µM (active) | 8.73 µM (active) | CN(CC(=O)Nc1ccccc1Cl)C(=O)COC(=O)c1ccc([N+](=O)[O-])s1 | – | – | – | – | – | – | – | – | – | –
– | – | CCCCC(=O)NC(c1ccc(N(C)C)cc1)c1ccc2cccnc2c1O (configuration not stated) | 3.94 µM (active) | 41.2 µM (inactive) | > 180 µM (inactive) | > 70 µM (inactive) | 3.12 µM (active) | 1.7 µM (active) | 0.465 µM (active) | > 80 µM (inactive) | > 160 µM (inactive) | > 350 µM (not active)

— ChEMBL document CHEMBL1201862, “PubChem BioAssay data set” (2004)
